For experiment [1], the system named is human lung cancer strain NCI-H441. Nature of the experiment: cells. As to conditions: NCI-H441, 96 h, read-out: NCI-H441 IC50 (nM).
Experiment [2] addresses GDP-bound HRAS wild-type protein (Homo sapiens, UniProt P01112). Nature of the experiment: Binding to HRAS by surface plasmon resonance (SPR), Single Cycle Kinetics. Conditions: SPR; KD ratio class.
The target of experiment [3] is GDP-bound NRAS wild-type protein (Homo sapiens, UniProt P01111). Nature of the experiment: Binding to NRAS by surface plasmon resonance (SPR), Single Cycle Kinetics. As to conditions: SPR; KD ratio class.

A word on the IC50: it is the concentration needed to halve the response being measured.

Chain of GDP-bound HRAS wild-type protein (P01112 whole entry): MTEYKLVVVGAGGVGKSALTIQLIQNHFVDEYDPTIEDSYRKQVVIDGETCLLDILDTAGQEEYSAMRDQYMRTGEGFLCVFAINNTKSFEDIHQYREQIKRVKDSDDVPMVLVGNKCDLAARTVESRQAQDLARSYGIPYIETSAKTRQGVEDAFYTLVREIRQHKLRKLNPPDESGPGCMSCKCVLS
Chain of GDP-bound NRAS wild-type protein (P01111 whole entry): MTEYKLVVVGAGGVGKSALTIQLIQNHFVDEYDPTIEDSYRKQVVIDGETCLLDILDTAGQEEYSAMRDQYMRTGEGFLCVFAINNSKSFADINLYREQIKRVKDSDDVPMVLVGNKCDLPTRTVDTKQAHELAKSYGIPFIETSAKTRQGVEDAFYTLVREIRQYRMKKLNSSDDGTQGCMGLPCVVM

Regarding `CCO[C@@H]1C[C@H]2C(=O)NC3(CCC3)C(=O)N(C)[C@@H](C3CCCC3)C(=O)N(C)[C@H](C(=O)N3CCCCC3)CC(=O)N(C)[C@@H](CC)C(=O)N[C@@H]([C@@H](C)CC)C(=O)N(C)CC(=O)N(C)[C@H]3C/C=C\CCN(C3=O)[C@@H](Cc3ccc(C(F)(F)F)cc3)C(=O)N(C)CC(=O)N[C@@H](CCc3cc(F)c(C(F)(F)F)c(F)c3)C(=O)N2C1` [PP1289], the IC50 in experiment [1] turned out to be 34.7 nM. Moreover, the “HRAS/KRAS (ratio of KD value for GDP-bound HRAS wild-type protein to KD value for KRAS)” value in experiment [2] was “A (a compound having 10 or more and less than 20 is denoted as A)”. For the same compound, the “NRAS/KRAS (ratio of KD value for GDP-bound NRAS wild-type protein to KD value for KRAS)” value in experiment [3] is recorded as “AA (a compound having 20 or more is denoted as AA)”.

Take `CCO[C@@H]1C[C@H]2C(=O)NC3(CCC3)C(=O)N(C)[C@@H](C3CCCC3)C(=O)N(C)[C@H](C(=O)N3CCCCC3)CC(=O)N(C)[C@@H](CC(C)C)C(=O)N[C@@H]([C@@H](C)CC)C(=O)N(C)CC(=O)N(C)[C@H]3C/C=C\CCN(C3=O)[C@@H](Cc3ccc(C(F)(F)F)cc3)C(=O)N(C)CC(=O)N[C@@H](CCc3cc(F)c(C(F)(F)F)c(F)c3)C(=O)N2C1` [PP1290]: the IC50 in experiment [1] was 15.4 nM. The “HRAS/KRAS (ratio of KD value for GDP-bound HRAS wild-type protein to KD value for KRAS)” value in experiment [2] was “A (a compound having 10 or more and less than 20 is denoted as A)”. The “NRAS/KRAS (ratio of KD value for GDP-bound NRAS wild-type protein to KD value for KRAS)” value in experiment [3] is given as “AA (a compound having 20 or more is denoted as AA)”.

Consider `CCO[C@@H]1C[C@H]2C(=O)NC3(CCC3)C(=O)N(C)[C@@H](C3CCCC3)C(=O)N(C)[C@H](C(=O)N3CCCCC3)CC(=O)N(C)[C@@H](CC3CC3)C(=O)N[C@@H]([C@@H](C)CC)C(=O)N(C)CC(=O)N(C)[C@H]3C/C=C\CCN(C3=O)[C@@H](Cc3ccc(C(F)(F)F)cc3)C(=O)N(C)CC(=O)N[C@@H](CCc3cc(F)c(C(F)(F)F)c(F)c3)C(=O)N2C1` [PP1291], for which the 50% inhibitory concentration (IC50) in experiment [1] came to 16.7 nM. The “HRAS/KRAS (ratio of KD value for GDP-bound HRAS wild-type protein to KD value for KRAS)” value in experiment [2] was “A (a compound having 10 or more and less than 20 is denoted as A)”. Also, in experiment [3], the “NRAS/KRAS (ratio of KD value for GDP-bound NRAS wild-type protein to KD value for KRAS)” value was “A (a compound having 10 or more and less than 20 is denoted as A)”.

For `CCO[C@@H]1C[C@H]2C(=O)NC3(CCC3)C(=O)N(C)[C@@H](C3CCCC3)C(=O)N(C)[C@H](C(=O)N3CCCCC3)CC(=O)N(C)[C@@H](C)C(=O)N[C@@H]([C@@H](C)CC)C(=O)N(C)CC(=O)N(C)[C@H]3C/C=C\CCN(C3=O)[C@@H](Cc3ccc(C(F)(F)F)cc3)C(=O)N(C)CC(=O)N[C@@H](CCc3cc(F)c(C(F)(F)F)c(F)c3)C(=O)N2C1` [PP1292], the IC50 in experiment [1] turned out to be 24.6 nM. In addition, in experiment [2], the “HRAS/KRAS (ratio of KD value for GDP-bound HRAS wild-type protein to KD value for KRAS)” value is “A (a compound having 10 or more and less than 20 is denoted as A)”. Moreover, the “NRAS/KRAS (ratio of KD value for GDP-bound NRAS wild-type protein to KD value for KRAS)” value in experiment [3] was “A (a compound having 10 or more and less than 20 is denoted as A)”.

With `CCC[C@H]1C(=O)N[C@@H]([C@@H](C)CC)C(=O)N(C)CC(=O)N(C)[C@H]2C/C=C\CCN(C2=O)[C@@H](Cc2ccc(C(F)(F)F)cc2)C(=O)N(C)CC(=O)N[C@@H](CCc2cc(F)c(C(F)(F)F)c(F)c2)C(=O)N2C[C@H](OCC)C[C@H]2C(=O)NC2(CCC2)C(=O)N(C)[C@@H](C2CCCC2)C(=O)N(C)[C@H](C(=O)N2CCCCC2)CC(=O)N1C` [PP1294], the IC50 in experiment [1] was determined as 10 nM. Moreover, in experiment [2], the “HRAS/KRAS (ratio of KD value for GDP-bound HRAS wild-type protein to KD value for KRAS)” value was “A (a compound having 10 or more and less than 20 is denoted as A)”. The “NRAS/KRAS (ratio of KD value for GDP-bound NRAS wild-type protein to KD value for KRAS)” value in experiment [3] is “A (a compound having 10 or more and less than 20 is denoted as A)”.

`CC[C@H](C)[C@@H]1NC(=O)[C@H](CC)N(C)C(=O)C[C@@H](C(=O)N(C)C)N(C)C(=O)[C@H](C2CCCC2)N(C)C(=O)C2(CCCC2)NC(=O)[C@@H]2CCCN2C(=O)[C@H](CCc2ccc(C(F)(F)F)c(Cl)c2)NC(=O)CN(C)C(=O)[C@H](Cc2ccc(C(F)(F)F)cc2)N2C[C@H](C)CC[C@@H](C2=O)N(C)C(=O)CN(C)C1=O` [PP1336]: the half-inhibitory concentration (IC50) in experiment [1] worked out at 10.8 nM. In addition, the “HRAS/KRAS (ratio of KD value for GDP-bound HRAS wild-type protein to KD value for KRAS)” value in experiment [2] is “B (a compound having 3 or more and less than 10 is denoted as B)”. Further, in experiment [3], the “NRAS/KRAS (ratio of KD value for GDP-bound NRAS wild-type protein to KD value for KRAS)” value is “B (a compound having 3 or more and less than 10 is denoted as B)”.

For `CC[C@H](C)[C@@H]1NC(=O)[C@H](CC)N(C)C(=O)C[C@@H](C(=O)N2CCOCC2)N(C)C(=O)[C@H](C2CCCC2)N(C)C(=O)C2(CCCC2)NC(=O)[C@@H]2CCCN2C(=O)[C@H](CCc2ccc(C(F)(F)F)c(Cl)c2)NC(=O)CN(C)C(=O)[C@H](Cc2ccc(C(F)(F)F)cc2)N2C[C@H](C)CC[C@@H](C2=O)N(C)C(=O)CN(C)C1=O` [PP1337], the 50% inhibitory concentration (IC50) in experiment [1] came out at 29.8 nM. Also, in experiment [2], the “HRAS/KRAS (ratio of KD value for GDP-bound HRAS wild-type protein to KD value for KRAS)” value was “B (a compound having 3 or more and less than 10 is denoted as B)”. In experiment [3], the “NRAS/KRAS (ratio of KD value for GDP-bound NRAS wild-type protein to KD value for KRAS)” value is “B (a compound having 3 or more and less than 10 is denoted as B)”.

Consider `CC[C@H](C)[C@@H]1NC(=O)[C@H](CC)N(C)C(=O)C[C@@H](C(=O)N2CCOCC2)N(C)C(=O)[C@H](C2CCCC2)N(C)C(=O)C2(CCC2)NC(=O)[C@@H]2CCCN2C(=O)[C@H](CCc2ccc(C(F)(F)F)c(Cl)c2)NC(=O)CN(C)C(=O)[C@H](Cc2ccc(C(F)(F)F)cc2)N2C[C@H](C)CC[C@@H](C2=O)N(C)C(=O)CN(C)C1=O` [PP1338], for which the concentration for half-maximal inhibition (IC50) in experiment [1] stood at 35 nM. Further, the “HRAS/KRAS (ratio of KD value for GDP-bound HRAS wild-type protein to KD value for KRAS)” value in experiment [2] was “B (a compound having 3 or more and less than 10 is denoted as B)”. In addition, the “NRAS/KRAS (ratio of KD value for GDP-bound NRAS wild-type protein to KD value for KRAS)” value in experiment [3] was “B (a compound having 3 or more and less than 10 is denoted as B)”.

Consider `C#CC[C@H]1C(=O)N[C@@H]([C@@H](C)CC)C(=O)N(C)CC(=O)N(C)[C@H]2CC[C@@H](C)CN(C2=O)[C@@H](Cc2ccc(C(F)(F)F)cc2)C(=O)N(C)CC(=O)N[C@@H](CCc2ccc(C(F)(F)F)c(Cl)c2)C(=O)N2CCC[C@H]2C(=O)NC2(CCCC2)C(=O)N(C)[C@@H](C2CCCC2)C(=O)N(C)[C@H](C(=O)N(C)C)CC(=O)N1C` [PP1340], for which the half-inhibitory concentration (IC50) in experiment [1] was 10.9 nM. Further, the “HRAS/KRAS (ratio of KD value for GDP-bound HRAS wild-type protein to KD value for KRAS)” value in experiment [2] was “B (a compound having 3 or more and less than 10 is denoted as B)”. Also, the “NRAS/KRAS (ratio of KD value for GDP-bound NRAS wild-type protein to KD value for KRAS)” value in experiment [3] is “B (a compound having 3 or more and less than 10 is denoted as B)”.

As for `CC[C@H](C)[C@@H]1NC(=O)[C@H](CC2CC2)N(C)C(=O)C[C@@H](C(=O)N2CCOCC2)N(C)C(=O)[C@H](C2CCCC2)N(C)C(=O)C2(CCC2)NC(=O)[C@@H]2CCCN2C(=O)[C@H](CCc2ccc(C(F)(F)F)c(Cl)c2)NC(=O)CN(C)C(=O)[C@H](Cc2ccc(C(F)(F)F)cc2)N2C[C@H](C)CC[C@@H](C2=O)N(C)C(=O)[C@@H]2CCN2C1=O` [PP1341], the concentration for half-maximal inhibition (IC50) in experiment [1] was found to be 46.3 nM. The “HRAS/KRAS (ratio of KD value for GDP-bound HRAS wild-type protein to KD value for KRAS)” value in experiment [2] is “B (a compound having 3 or more and less than 10 is denoted as B)”. The “NRAS/KRAS (ratio of KD value for GDP-bound NRAS wild-type protein to KD value for KRAS)” value in experiment [3] is “A (a compound having 10 or more and less than 20 is denoted as A)”.

As to `CC[C@H](C)[C@@H]1NC(=O)[C@H](CC2CCC2)N(C)C(=O)C[C@@H](C(=O)N(C)C)N(C)C(=O)[C@H](C2CCCC2)N(C)C(=O)C2(CCCC2)NC(=O)[C@@H]2CCCN2C(=O)[C@H](CCc2ccc(C(F)(F)F)c(Cl)c2)NC(=O)CN(C)C(=O)[C@H](Cc2ccc(C(F)(F)F)cc2)N2C[C@H](C)CC[C@@H](C2=O)N(C)C(=O)CN(C)C1=O` [PP1342], the half-inhibitory concentration (IC50) in experiment [1] was 5 nM. Further, in experiment [2], the “HRAS/KRAS (ratio of KD value for GDP-bound HRAS wild-type protein to KD value for KRAS)” value is “B (a compound having 3 or more and less than 10 is denoted as B)”. In addition, the “NRAS/KRAS (ratio of KD value for GDP-bound NRAS wild-type protein to KD value for KRAS)” value in experiment [3] is “B (a compound having 3 or more and less than 10 is denoted as B)”.

With `CC[C@H](C)[C@@H]1NC(=O)[C@H](CC2CC2)N(C)C(=O)C[C@@H](C(=O)N2CCOCC2)N(C)C(=O)[C@H](C2CCCC2)N(C)C(=O)C2(CCCC2)NC(=O)[C@@H]2CCCN2C(=O)[C@H](CCc2ccc(C(F)(F)F)c(Cl)c2)NC(=O)CN(C)C(=O)[C@H](Cc2ccc(C(F)(F)F)cc2)N2C[C@H](C)CC[C@@H](C2=O)N(C)C(=O)CN(C)C1=O` [PP1343], in experiment [1], the 50% inhibitory concentration (IC50) stood at 19.3 nM. In addition, the “HRAS/KRAS (ratio of KD value for GDP-bound HRAS wild-type protein to KD value for KRAS)” value in experiment [2] was “B (a compound having 3 or more and less than 10 is denoted as B)”. Further, the “NRAS/KRAS (ratio of KD value for GDP-bound NRAS wild-type protein to KD value for KRAS)” value in experiment [3] is “A (a compound having 10 or more and less than 20 is denoted as A)”.

Turning to `CC[C@H](C)[C@@H]1NC(=O)[C@H](CC2CC2)N(C)C(=O)C[C@@H](C(=O)N2CCOCC2)N(C)C(=O)[C@H](C2CCCC2)N(C)C(=O)C2(CCC2)NC(=O)[C@@H]2CCCN2C(=O)[C@H](CCc2ccc(C(F)(F)F)c(Cl)c2)NC(=O)CN(C)C(=O)[C@H](Cc2ccc(C(F)(F)F)cc2)N2C[C@H](C)CC[C@@H](C2=O)N(C)C(=O)CN(C)C1=O` [PP1344], in experiment [1], the half-maximal inhibitory concentration (IC50) was found to be 16.7 nM. Besides, the “HRAS/KRAS (ratio of KD value for GDP-bound HRAS wild-type protein to KD value for KRAS)” value in experiment [2] is “B (a compound having 3 or more and less than 10 is denoted as B)”. Besides, the “NRAS/KRAS (ratio of KD value for GDP-bound NRAS wild-type protein to KD value for KRAS)” value in experiment [3] was “B (a compound having 3 or more and less than 10 is denoted as B)”.

In the case of `CC[C@H](C)[C@@H]1NC(=O)[C@H](CC2CCC2)N(C)C(=O)C[C@@H](C(=O)N2CCOCC2)N(C)C(=O)[C@H](C2CCCC2)N(C)C(=O)C2(CCC2)NC(=O)[C@@H]2CCCN2C(=O)[C@H](CCc2ccc(C(F)(F)F)c(Cl)c2)NC(=O)CN(C)C(=O)[C@H](Cc2ccc(C(F)(F)F)cc2)N2C[C@H](C)CC[C@@H](C2=O)N(C)C(=O)[C@@H]2CCN2C1=O` [PP1345], the half-maximal inhibitory concentration (IC50) in experiment [1] is 34.8 nM. In experiment [2], the “HRAS/KRAS (ratio of KD value for GDP-bound HRAS wild-type protein to KD value for KRAS)” value was “B (a compound having 3 or more and less than 10 is denoted as B)”. For the same compound, in experiment [3], the “NRAS/KRAS (ratio of KD value for GDP-bound NRAS wild-type protein to KD value for KRAS)” value is “A (a compound having 10 or more and less than 20 is denoted as A)”.
